According to paper PMC4875962 (Clinical Pharmacokinetics, 2015):

Columns and labels:
Transporters = details: cited from earlier work
Metabolic CYP enzymes = details: cited from earlier work
[1] = after multiple doses; cited from earlier work
platelet aggregation = details: day 2 ratio (90 % CI 68.20–71.62); data on file

Compound	Transporters inhibited (Transporters)	Metabolic CYP enzymes inhibited (Metabolic CYP enzymes)	further results
C=C[C@H]1C[N@@]2CC[C@H]1C[C@@H]2[C@@H](O)c1ccnc2ccc(OC)cc12 [Quinidine]	P-gp; OCT2	Strong 2D6	
CC(=O)N1CCN(c2ccc(OCC3COC(Cn4ccnc4)(c4ccc(Cl)cc4Cl)O3)cc2)CC1 (stereo not shown) [Ketoconazole]	P-gp	Strong 3A4; weak 2C8, 2C19	
CCCCc1oc2ccc(NS(C)(=O)=O)cc2c1C(=O)c1ccc(OCCCN(CCCC)CCCC)cc1 [Dronedarone]	P-gp	Moderate 3A4	
COc1ccc2nc([S@@+]([O-])Cc3ncc(C)c(OC)c3C)[nH]c2c1 [Esomeprazole]		2C9, 2C19 (competitive)	gastric pH [1]: approximately 5
COc1ccc2cc([C@H](C)C(=O)O)ccc2c1 [Naproxen]			baseline-corrected ratio for platelet aggregation (platelet aggregation): 69.89%
CO[C@H]1/C=C/O[C@@]2(C)Oc3c(C)c(O)c4c(O)c(c(/C=N/N5CCN(C)CC5)c(O)c4c3C2=O)NC(=O)/C(C)=C\C=C\[C@H](C)[C@H](O)[C@@H](C)[C@@H](O)[C@@H](C)[C@H](OC(C)=O)[C@@H]1C [Rifampin]			Transporters induced (Transporters): P-gp
